Experimental data published in patent EP3818828A1 (priority 2019, dated 2021).
Converted amounts (≈) assume the structure as drawn. Where two headings read alike, the source gives them in different places.

How the values were obtained:
Assay type in all cases: cell-based
Pyricularia grisea = assay: microbe, parasite or virus in culture
Valsa mali [1] = assay: Toxicity determination (EC50) on mycelial growth, growth rate method
Method: (§1) The inhibition of samples for testing on the mycelial growth of plant pathogenic fungi for testing is determined with a growth rate method. 3-(3',4'-methylenedioxy phenyl)-N-n-propyl acrylamide, 3-(3',4'-methylenedioxy phenyl)-piperidine acrylate and five control agents are dissolved with dimethyl sulfoxide (DMSO), then formulated at 5-7 concentrations of different gradients for test following the trial test results, with the same concentration of DMSO as the control solvent, each treatment in triplicate. Fungal cakes with a diameter of 4 mm are taken from the edge of the colony, inoculated into the center of a PDA plate containing different agents of different concentrations and the DMSO control, with one piece of fungal cake inoculated in each plate (with a diameter of […]), and incubated in a constant temperature incubator at a temperature of 22±1.5°C. 7 days later (10-20 days may be needed for some pathogenic fungi), the diameter of the colony is measured with a cross over method according to the mycelial growth profile of the control pathogenic fungi, then the inhibition rate of mycelial growth is calculated.
(§2) 3-(3',4'-methylenedioxy phenyl)-piperidine acrylate, the control agents 96.5% of chlorothalonil technical and 97.0% of procymidone technical. Agents for testing and the control agents chlorothalonil and procymidone are treated at 5-8 concentrations of different gradients on the basis of preliminary tests to ensure that the inhibition rates for treatments at all the concentrations are between 10% and 90%.
(§3) For specific determination methods, with reference to Embodiment 1. The concentration of active ingredients in the culture medium is used as the testing concentration to calculate the toxic regression equation (Y=bx+a) and the median inhibition concentration EC50, 95% confidence limit, and relative toxicity. Relative toxicity (compared to chlorothalonil) = EC50 of chlorothalonil / EC50 of 3-(3',4'-methylenedioxy phenyl)-piperidine acrylate, and relative toxicity (compared to procymidone) = EC50 of procymidone / EC50 of 3-(3',4'-methylenedioxy phenyl)-piperidine acrylate.

Colletotrichum capsici [2] = assay: as above
Method: as §1, §2, §3

Botrytis cinerea [3] = assay: as above
Method: as §1, §2, §3

Sclerotinia sclerotiorum [4] = assay: as above
Method: as §1, §2, §3

Exserohilum turcicum [5] = assay: as above
Method: as §1, §2, §3

Fusarium graminearum [6] = assay: microbe, parasite or virus in culture
Phytophthora infestans [7] = assay: microbe, parasite or virus in culture
Phytophthora infestans [8] = conditions: Phytophthora infestas; 1 mg/mL
C. gossypii = assay: Ex vivo mycelial growth inhibition, growth rate method; conditions: 1 mg/mL
Excerpt: (§4) 3-(3',4'-methylenedioxy phenyl)-N-n-propyl acrylamide (at a purity of 99%), 3-(3',4'-methylenedioxy phenyl)-piperidine acrylate (at a purity of 99%), the control agents, 96.5% of chlorothalonil technical (non-systemic broad-spectrum fungicide), 97.2% of carbendazim technical (systemic broad-spectrum fungicide), 97.0% of procymidone technical (systemic fungicide), 96.0% of dimethomorphtechnical ((E,Z)-4-[3-(4-chlorphenyl)3-(3,4-dimethoxy phenyl)acryloyl]morpholine, systemic fungicide), 97.0% of azoxystrobin technical (systemic broad-spectrum fungicide).
as §1
(§5) The computational formula is as below: the inhibition rate of mycelial growth (%) = [(the diameter of the control colony - the diameter of the treated colony)/the diameter of the control colony] × 100.
(§6) The inhibition results of each agent at a concentration of 1 mg/mL on the mycelial growth of plant pathogenic fungi are shown in Tables 1 and 2.

F. oxysporum f. sp. lini = assay: as above; conditions: 1 mg/mL
Excerpt: as §4, §1, §5, §6

Thanatephorus cucumeris = assay: as above; conditions: 1 mg/mL
Excerpt: as §4, §1, §5, §6

[9] = test system: F. oxysporum f. sp. vasinfectum; assay: as above; conditions: 1 mg/mL
Excerpt: as §4, §1, §5, §6

F. verticillioide = assay: as above; conditions: 1 mg/mL
Excerpt: as §4, §1, §5, §6

[10] = test system: Gaeumannomyces graminis var. graminis and G. graminis var. tritici; assay: as above; conditions: 1 mg/mL
Excerpt: as §4, §1, §5, §6

Phytophthora capsici = assay: as above; conditions: Phytophthora capsici; 1 mg/mL
Excerpt: as §4, §1, §5, §6

Mycosphaerlla melonis = assay: as above; conditions: 1 mg/mL
Excerpt: as §4, §1, §5, §6

Coniella diplodiella = assay: as above; conditions: 1 mg/mL
Excerpt: as §4, §1, §5, §6

Rhizoctonia solani = assay: as above; conditions: Rhizoctonia solani; 1 mg/mL
Excerpt: as §4, §1, §5, §6

Valsa mali [11] = assay: as above; conditions: 1 mg/mL
Excerpt: as §4, §1, §5, §6

Colletotrichum capsici [12] = assay: as above; conditions: 1 mg/mL
Excerpt: as §4, §1, §5, §6

Botrytis cinerea [13] = assay: as above; conditions: 1 mg/mL
Excerpt: as §4, §1, §5, §6

Pythium aphanidermatum = assay: as above; conditions: 1 mg/mL
Excerpt: as §4, §1, §5, §6

[14] = test system: Botryosphaeriana berengeriana; assay: as above; conditions: 1 mg/mL
Excerpt: as §4, §1, §5, §6

Sclerotinia sclerotiorum [15] = assay: as above; conditions: 1 mg/mL
Excerpt: as §4, §1, §5, §6

[16] = test system: Botryosphaeria berengeriana; assay: as above; conditions: 1 mg/mL
Excerpt: as §4, §1, §5, §6

Exserohilum turcicum [17] = assay: as above; conditions: 1 mg/mL
Excerpt: as §4, §1, §5, §6

Magnaporthe grisea = assay: microbe, parasite or virus in culture
F. graminearum [18] = assay: microbe, parasite or virus in culture
Fusarium graminearum [19] = assay: microbe, parasite or virus in culture; remark: listed apart in the source
F. graminearum [20] = assay: microbe, parasite or virus in culture; remark: listed apart in the source
Phytophthora infestans [21] = assay: microbe, parasite or virus in culture; conditions: 1 mg/mL
[22] = EC50 of chlorothalonil / EC50 of agent
[23] = EC50 of procymidone / EC50 of agent
[24] = median inhibition concentration

## CC12CC1(C)C(=O)N(c1cc(Cl)cc(Cl)c1)C2=O (centres unmarked) [Procymidone, procymidone]
Pyricularia grisea; 1 mg/mL
  Average Diameter of the Colony: 4.63 cm
Pyricularia grisea; read-out: Inhibition Rate
  inhibition at 1000 µg/mL: 48.6%
Valsa mali [1]; [22]
  Relative Toxicity (Compared to Chlorothalonil): 0.98
Valsa mali [1]; [23]
  Relative Toxicity (Compared to Procymidone): 1.00
Valsa mali [1]; [24]
  EC50: 427.3 µg/mL (≈ 1500 µM)
Colletotrichum capsici [2]; Colletotrichum truncatum, median inhibition concentration, read-out: EC50
  EC50: 518 µg/mL (≈ 1820 µM)
Colletotrichum capsici [2]; [22]
  Relative Toxicity (Compared to Chlorothalonil): 0.78
Colletotrichum capsici [2]; [23]
  Relative Toxicity (Compared to Procymidone): 1.00
Botrytis cinerea [3]; [22]
  Relative Toxicity (Compared to Chlorothalonil): 2.24
Botrytis cinerea [3]; [23]
  Relative Toxicity (Compared to Procymidone): 1.00
Botrytis cinerea [3]; [24]
  EC50: 78.9 µg/mL (≈ 278 µM)
Sclerotinia sclerotiorum [4]; [22]
  Relative Toxicity (Compared to Chlorothalonil): 0.89
Sclerotinia sclerotiorum [4]; [23]
  Relative Toxicity (Compared to Procymidone): 1.00
Sclerotinia sclerotiorum [4]; [24]
  EC50: 70.6 µg/mL (≈ 248 µM)
Exserohilum turcicum [5]; [22]
  Relative Toxicity (Compared to Chlorothalonil): 3.92
Exserohilum turcicum [5]; [23]
  Relative Toxicity (Compared to Procymidone): 1.00
Exserohilum turcicum [5]; median inhibition concentration, read-out: EC50
  EC50: 105 µg/mL (≈ 369 µM)
Fusarium graminearum [6]; 1 mg/mL
  Average Diameter of the Colony: 2.26 cm
Fusarium graminearum [6]; read-out: Inhibition Rate
  inhibition at 1000 µg/mL: 57.7%
Phytophthora infestans [7]; [22]
  Relative Toxicity (Compared to Chlorothalonil): 0.15
Phytophthora infestans [7]; [23]
  Relative Toxicity (Compared to Procymidone): 1.00
Phytophthora infestans [7]; [24]
  EC50: 778 µg/mL (≈ 2740 µM)
Phytophthora infestans [8]
  Average Diameter of the Colony: 0.80 cm
C. gossypii; C. gossypii
  Average Diameter of the Colony: 1.62 cm
C. gossypii; Colletotrichum gossypii, C. cossypii, read-out: Inhibition Rate
  inhibition at 1000 µg/mL: 70%
F. oxysporum f. sp. lini
  Average Diameter of the Colony: 6.33 cm
F. oxysporum f. sp. lini; Fusarium oxysporum
  inhibition at 1000 µg/mL: 29.7%
Thanatephorus cucumeris
  Average Diameter of the Colony: 0.54 cm
  inhibition at 1000 µg/mL: 93.7%
[9]
  Average Diameter of the Colony: 2.57 cm
[9]; Fusarium oxysporum
  inhibition at 1000 µg/mL: 64.5%
F. verticillioide
  Average Diameter of the Colony: 2.57 cm
  inhibition at 1000 µg/mL: 24%
[10]
  Average Diameter of the Colony: 2.16 cm
  inhibition at 1000 µg/mL: 69.8%
Phytophthora capsici
  Average Diameter of the Colony: 5.10 cm
  inhibition at 1000 µg/mL: 3.77%
Mycosphaerlla melonis
  Average Diameter of the Colony: 0.24 cm
  inhibition at 1000 µg/mL: 97.2%
Coniella diplodiella
  Average Diameter of the Colony: 0.06 cm
  inhibition at 1000 µg/mL: 99.1%
Rhizoctonia solani
  Average Diameter of the Colony: 0.00 cm
  inhibition at 1000 µg/mL: 100%
Valsa mali [11]
  Average Diameter of the Colony: 0.83 cm
Valsa mali [11]; Cytospora mali
  inhibition at 1000 µg/mL: 89%
Colletotrichum capsici [12]
  Average Diameter of the Colony: 1.19 cm
Colletotrichum capsici [12]; Colletotrichum truncatum
  inhibition at 1000 µg/mL: 82.5%
Botrytis cinerea [13]
  Average Diameter of the Colony: 1.74 cm
  inhibition at 1000 µg/mL: 76.8%
Pythium aphanidermatum
  Average Diameter of the Colony: 6.20 cm
  inhibition at 1000 µg/mL: 7.46%
[14]
  Average Diameter of the Colony: 0.20 cm
  inhibition at 1000 µg/mL: 96.5%
Sclerotinia sclerotiorum [15]
  Average Diameter of the Colony: 0.00 cm
  inhibition at 1000 µg/mL: 100%
[16]
  Average Diameter of the Colony: 0.15 cm
  inhibition at 1000 µg/mL: 97.8%
Exserohilum turcicum [17]
  Average Diameter of the Colony: 0.24 cm
  inhibition at 1000 µg/mL: 96.1%
Magnaporthe grisea; [22]
  Relative Toxicity (Compared to Chlorothalonil): 1.42
Magnaporthe grisea; [23]
  Relative Toxicity (Compared to Procymidone): 1.00
Magnaporthe grisea; Pyricularia oryzae, median inhibition concentration
  EC50: 308 µg/mL (≈ 1080 µM)
F. graminearum [18]; [22]
  Relative Toxicity (Compared to Chlorothalonil): 0.27
F. graminearum [18]; [23]
  Relative Toxicity (Compared to Procymidone): 1.00
F. graminearum [18]; Fusarium graminearum, median inhibition concentration
  EC50: 850 µg/mL (≈ 2990 µM)
Fusarium graminearum [19]; [22]
  Relative Toxicity (Compared to Chlorothalonil): 3.27
Fusarium graminearum [19]; [23]
  Relative Toxicity (Compared to Procymidone): 1.00
Fusarium graminearum [19]; [24]
  EC50: 144 µg/mL (≈ 505 µM)
F. graminearum [20]; F. graminearum, 1 mg/mL
  Average Diameter of the Colony: 3.57 cm
F. graminearum [20]; Fusarium graminearum, read-out: Inhibition Rate
  inhibition at 1000 µg/mL: 58.5%
Phytophthora infestans [21]
  Average Diameter of the Colony: 0.00 cm
